# Test results from patent US20090215743A1, “Tricyclic benzazepine derivatives and their use” (Bayer HealthCare AG, priority 2004, published 2009).
# Test system: sterol biosynthesis
# Test: Inhibition of squalene and cholesterol synthesis in the liver of mice (sterol biosynthesis)
# Type: in vivo
# Conditions: male NMRI mice, 3 mg/kg p.o., 14C-mevalonolactone, liver lipid fraction
# Method: Male NMRI mice are kept on normal rodent diet (NAFAG 3883) in metabolism cages. The light/dark cycle comprises 12 hours, from 06.00 to 18.00 and from 18.00 to 06.00. The animals are employed with a body weight of between 25 g and 40 g in groups of 8-10 animals in the experiments. Feed and drinking water are available to the animals ad libitum.
# The substances are, according to their solubility, administered orally in aqueous tragacanth suspension (0.5%) or in Solutol HS15/saline solution (20:80) by gavage in a volume of 10 ml/kg of body weight or else injected subcutaneously in Solutol HS15/saline solution (20:80) or DMSO/saline solution (20:80). The corresponding control groups receive only the corresponding formulating agent without active substance. One or two hours after administration of the substance, the animals receive intraperitoneal injections of radiolabelled ^14C-mevalonolactone. One or two hours after the ^14C-mevalonolactone injection, or 24 hours after the administration of substance, the animals are sacrificed, the abdominal cavity is opened, and liver tissue is removed. Immediately after removal, the tissue is dried on the surface, weighed and homogenized in isopropanol. The further processing and extraction of the synthesized squalene and its secondary products takes place by a method of I. Duncan et al. (J. Chromatogr. 1979, 162), modified by H. Bischoff et al. (Atherosclerosis 1997, 135).
# The extracted lipid fraction is taken up in 1 ml of isopropanol, transferred into scintillation vials, made up with 15 ml of Ultima Gold® scintillation fluid (Packard) and counted in a liquid scintillation counter (Beckmann Coulter LS 6500).
# After calculation of the specific ^14C activity of the lipid fraction (dpm/g of liver tissue), the rate of synthesis of the radiolabelled ^14C squalene and of the ^14C secondary metabolites of the animals treated with the active substance is compared with the rate of synthesis of the radiolabelled ^14C squalene and of the ^14C secondary metabolites of the control animals treated only with formulating agent. A reduction in the rate of synthesis by ≧30% compared with the rate of synthesis for the control animals (=100%) is regarded as pharmacologically active if the statistical assessment by Student's t test results in a p value of <0.05.
row,SMILES,Inhibition relative to the untreated control group [%]
1,"COc1cccc(C2OC(CC(=O)N3CCN(C(C)=O)CC3)c3nnc(C(C)C)n3-c3ccc(Cl)cc32)c1OC (stereo not shown) [Example 50, 4-[2-(4-Acetylpiperazin-1-yl)-2-oxoethyl]-8-chloro-6-(2,3-dimethoxyphenyl)-1-isopropyl-4H,6H-[1,2,4]triazolo[4,3-a][4,1]benzoxazepine]",75
2,"COc1cccc(C2OC(CC(=O)N3CCSC3)c3nnc(C(C)C)n3-c3ccc(Cl)cc32)c1OC (stereo not shown) [Example 41, 8-Chloro-6-(2,3-dimethoxyphenyl)-1-isopropyl-4-[2-oxo-2-(1,3-thiazolidin-3-yl)ethyl]-4H,6H-[1,2,4]triazolo[4,3-a][4,1]benzoxazepine]",81
3,"COc1cccc(C2OC(CC(=O)O)c3nnc(C(C)C)n3-c3ccc(Cl)cc32)c1OC (racemic) [Example 3, [8-Chloro-6-(2,3-dimethoxyphenyl)-1-isopropyl-4H,6H-[1,2,4]triazolo[4,3-a][4,1]benzoxazepin-4-yl]acetic acid]",81
4,"COc1cccc(C2OC(CC(=O)O)c3nnc(C(C)(C)CO)n3-c3ccc(Cl)cc32)c1OC (racemic) [Example 62-2, [8-Chloro-6-(2,3-dimethoxyphenyl)-1-(2-hydroxy-1,1-dimethylethyl)-4H,6H-[1,2,4]triazolo[4,3-a]-[4,1]benzoxazepin-4-yl]acetic acid]",77
